Measured values as given in ChEMBL document CHEMBL3997795, “Conjugates of 2,4-Dihydroxybenzoate and Salicylhydroxamate and Lipocations Display Potent Antiparasite Effects by Efficiently Targeting the Trypanosoma brucei and Trypanosoma congolense Mitochondrion” (J Med Chem, 2017).
Calls of active or inactive are those of the source. The calls are words filed in the database; no cut-off is given here.

Columns and labels:
[1] = Resistance factor, ratio of EC50 for diminazene, pentamidine and melaminophenyl arsenical-resistant bloodstream trypomastigote stage of Trypanosoma brucei brucei B48 harboring TbAT1 deletion mutant to EC50 for bloodstream trypomastigote stage of wild-type Trypanosoma brucei brucei Lister 427; format: functional
[2] = Selectivity index, ratio of CC50 for HFF cells to EC50 for bloodstream trypomastigote stage of wild-type Trypanosoma brucei brucei Lister 427; format: toxicity; conditions: human, read-out: Ratio CC50/EC50
Trypanosoma congolense = assay: Anti-parasitic activity against bloodstream form of Trypanosoma congolense IL3000 after 48 hrs by alamar blue based fluorescence assay; format: functional; conditions: IL3000, 48 h
[3] = Selectivity index, ratio of CC50 for HFF cells to EC50 for bloodstream form of Trypanosoma congolense IL3000; format: toxicity; conditions: human, read-out: Ratio CC50/EC50
[4] = test system: Trypanosoma brucei brucei; assay: Anti-parasitic activity against diminazene, pentamidine and melaminophenyl arsenical-resistant bloodstream trypomastigote stage of Trypanosoma brucei brucei B48 harboring TbAT1 deletion mutant after 48 hrs by alamar blue based fluorescence assay; format: functional; conditions: B48, 48 h
[5] = test system: Trypanosoma brucei brucei; assay: Anti-parasitic activity against bloodstream trypomastigote stage of wild-type Trypanosoma brucei brucei Lister 427 after 48 hrs by alamar blue based fluorescence assay; format: functional; conditions: Lister 427, 48 h
[6] = Inhibition of recombinant MTS-deficient N-terminal His6-tagged and SUMO-tagged Trypanosoma alternative oxidase expressed in Escherichia coli FN102 using ubiquinol-1 as substrate
[7] = Cytotoxicity against HFF cells after 30 hrs by resazurin based fluorimetric assay; format: cell-based; conditions: human
[8] = test system: Trypanosoma brucei brucei; assay: Resistant factor, ratio of EC50 for bloodstream trypomastigote stage of wild-type Trypanosoma brucei brucei Lister 427 assessed as inhibition of respiration in presence of glycerol to EC50 for bloodstream trypomastigote stage of wild-type Trypanosoma brucei brucei Lister 427 assessed as inhibition of respiration in absence of glycerol; format: functional
[9] = test system: Trypanosoma brucei brucei; assay: Trypanocidal activity against bloodstream trypomastigote stage of wild-type Trypanosoma brucei brucei Lister 427 assessed as inhibition of respiration in presence of glycerol; format: functional
[10] = test system: Trypanosoma brucei brucei; assay: Trypanocidal activity against bloodstream trypomastigote stage of wild-type Trypanosoma brucei brucei Lister 427 at 3 times EC50 after 4 hrs by propidium iodide staining based fluorimetric assay; format: functional
[11] = test system: Trypanosoma brucei brucei; assay: Anti-parasitic activity against bloodstream trypomastigote stage of Trypanosoma brucei brucei Lister 427 over-expressing TAO relative to bloodstream trypomastigote stage of wild-type Trypanosoma brucei brucei Lister 427; format: functional
[12] = test system: Trypanosoma brucei brucei; assay: Induction of mitochondrial membrane depolarization in bloodstream trypomastigote stage of wild-type Trypanosoma brucei brucei Lister 427 at 0.005 uM after 10 mins by TMRE dye based flow cytometry; format: functional
[13] = test system: Trypanosoma brucei brucei; assay: Cell cycle arrest in bloodstream trypomastigote stage of wild-type Trypanosoma brucei brucei Lister 427 assessed as accumulation at S phase at 0.005 uM after 24 hrs by propidium iodide staining-based flow cytometry; format: functional
[14] = test system: Trypanosoma brucei brucei; assay: Cell cycle arrest in bloodstream trypomastigote stage of wild-type Trypanosoma brucei brucei Lister 427 assessed as accumulation at G1 phase at 0.005 uM after 24 hrs by propidium iodide staining-based flow cytometry; format: functional
[15] = test system: Trypanosoma brucei brucei; assay: Induction of plasma membrane disruption in bloodstream trypomastigote stage of wild-type Trypanosoma brucei brucei Lister 427 assessed as increase in propidium iodide influx after 6 hrs by fluorimetric assay; format: functional
[16] = test system: Trypanosoma brucei brucei; assay: Reduction in oxygen consumption in bloodstream trypomastigote stage of wild-type Trypanosoma brucei brucei Lister 427 measured immediately for 120 mins by fluorescent oxygen reporter probe based fluorimetric assay; format: functional
[17] = test system: Trypanosoma brucei brucei; assay: Cell cycle arrest in bloodstream trypomastigote stage of wild-type Trypanosoma brucei brucei Lister 427 assessed as accumulation at G2 phase at 0.005 uM after 24 hrs by propidium iodide staining-based flow cytometry; format: functional
[18] = Cytostatic activity against HEK293T cells after 30 hrs by resazurin based fluorimetric assay; format: cell-based, HEK-293T; conditions: human
[19] = Cytotoxicity against HEK cells up to 50 uM after 30 hrs by resazurin based fluorimetric assay; format: cell-based; conditions: human
[20] = Selectivity index, ratio of CC50 for HEK293T cells to EC50 for bloodstream trypomastigote stage of wild-type Trypanosoma brucei brucei Lister 427; format: toxicity; conditions: human, read-out: Ratio CC50/EC50
[21] = Selectivity index, ratio of CC50 for HEK293T cells to EC50 for bloodstream form of Trypanosoma congolense IL3000; format: toxicity; conditions: human, read-out: Ratio CC50/EC50

SMILES	Ratio EC50 [1]	EC50 (Trypanosoma congolense) [nM]	EC50 [4] [nM]	EC50 [5] [nM]	IC50 [6] [nM]	Ratio EC50 [8]	EC50 [9] [nM]	CC50 at 30 h [18] [nM]	Activity [19]	selectivity ratio [20]	selectivity ratio [21]	further results
O=C(OCCCCCCCCCCCCCCCC[P+](c1ccccc1)(c1ccccc1)c1ccccc1)c1ccc(O)cc1O.[Br-]	0.91	122	8	9	> 5000	0.6	5	–	–	–	–	selectivity ratio [2]: 27700; selectivity ratio [3]: 2040; CC50 at 30 h [7]: 249000 nM
N=C(N)c1ccc(OCCCCCOc2ccc(C(=N)N)cc2)cc1 [PENTAMIDINE]	98	–	940	2.8	–	1.32	4	–	–	–	–	–
O=C(OCCCCCCCCCCCCCC[P+](c1ccccc1)(c1ccccc1)c1ccccc1)c1ccc(O)cc1O.[Br-]	0.78	61	1.2	1.5	1460	0.55	0.8	–	–	–	–	Activity [10]: Active; fold change (FC) [11]: 2.6; Activity [12]: Active; selectivity ratio [2]: 23400; selectivity ratio [3]: 982; Activity [13]: Active; Activity [14]: Active; Activity [15]: Dose-dependent effect; CC50 at 30 h [7]: 59700 nM; Activity [16]: Dose-dependent effect; Activity [17]: Active
O=C(OCCCCCCCCCCCCCC[n+]1cccc2ccccc21)c1ccc(O)cc1O.[Br-]	1.21	3800	125	100	1360	0.75	78	–	–	–	–	Activity [10]: Active; selectivity ratio [2]: 1660; selectivity ratio [3]: 45.3; Activity [15]: Dose-dependent effect; CC50 at 30 h [7]: 172000 nM
O=C(OCCCCCCCCC[P+](c1ccccc1)(c1ccccc1)c1ccccc1)c1ccc(O)cc1O.[Br-]	1.24	410	7.4	5.9	–	0.88	5	4680	Non-Toxic	789	11.5	–
O=C(OCCCCCCCCCCCCCCCCBr)c1ccc(O)cc1O	1.07	> 100000	49000	45700	–	–	–	> 400000	Non-Toxic	> 9	–	–
O=C(NO)c1ccc(OCCCCCCCCCCCC[P+](c2ccccc2)(c2ccccc2)c2ccccc2)cc1O.[Br-]	–	46400	–	140	–	1.13	158	> 400000	Non-Toxic	> 2860	> 8.6	–
O=COCCCCCCCCCCOC(=O)c1ccc(O)cc1O	0.69	> 100000	22100	31800	–	–	–	> 400000	Non-Toxic	> 12	–	–
O=C(OCCCCCCCCCCCCBr)c1ccc(O)cc1O	1.03	52100	14900	14500	–	–	–	> 400000	Non-Toxic	> 28	> 7.7	–
O=C(O)c1ccc(O)cc1O [2,4-DIHYDROXYBENZOIC ACID]	–	–	–	17100	116000	1.11	19000	–	–	–	–	–
O=C(OCCCCCCCCCCCCCCCC[n+]1cccc2ccccc21)c1ccc(O)cc1O.[Br-]	1.01	3000	140	140	> 5000	0.62	89	–	–	–	–	selectivity ratio [2]: 2410; selectivity ratio [3]: 115; CC50 at 30 h [7]: 345000 nM
N=C(N)c1ccc(/N=N/Nc2ccc(C(=N)N)cc2)cc1 [DIMINAZENE]	–	151	780	65	–	0.97	63	–	–	–	–	–
O=C(OCCCCCCCC[P+](c1ccccc1)(c1ccccc1)c1ccccc1)c1ccc(O)cc1O.[Br-]	0.94	4300	68	73	–	1.16	84	7730	Non-Toxic	106	1.8	–
O=C(NO)c1ccc(OCCCCCCCC[P+](c2ccccc2)(c2ccccc2)c2ccccc2)cc1O.[Br-]	–	27200	–	400	–	–	–	> 400000	Non-Toxic	> 1000	> 14.7	–
O=C(OCCCCCCCCCCCC[n+]1cccc2ccccc21)c1ccc(O)cc1O.[Br-]	1.05	7000	347	330	> 5000	0.69	230	–	–	–	–	selectivity ratio [2]: 609; selectivity ratio [3]: 28.7; CC50 at 30 h [7]: 202000 nM
O=C(OCCCCCCCCCCCC[P+](c1ccccc1)(c1ccccc1)c1ccccc1)c1ccc(O)cc1O.[Br-]	0.96	42	1.2	1.2	–	1.01	1.2	1650	Non-Toxic	1330	–	–
O=C(NO)c1ccc(OCCCCCCCCCC[P+](c2ccccc2)(c2ccccc2)c2ccccc2)cc1O.[Br-]	–	–	–	200	–	–	–	> 400000	Non-Toxic	> 2040	–	–
O=C(OCCCCCCCCCC[P+](c1ccccc1)(c1ccccc1)c1ccccc1)c1ccc(O)cc1O.[Br-]	0.86	180	1.1	1.3	–	1.26	2	2330	Non-Toxic	1770	13.2	–
